Measured values: DBAASP
In brackets after ≈: the same amount, converted by molar mass. Values belong to the compound of their own block, whether it stands above or below them.

Legend:
Experiment in all cases: ≥ marks a high value that may be exact or a test limit, other limits are often not marked, values filed in µg/mL are converted to µM
[1] = test system: Escherichia coli DSM 1103
[2] = test system: Streptococcus pneumoniae DSM 11865
[3] = test system: Staphylococcus aureus ATCC 25923
[4] = test system: Klebsiella pneumoniae DSM 681
[5] = test system: Pseudomonas aeruginosa DSM 1128
[6] = test system: Staphylococcus aureus ATCC 9144
[7] = test system: Escherichia coli ATCC 10536
[8] = test system: Bacillus subtilis ATCC 6633
[9] = test system: Escherichia coli DH5alpha
[10] = test system: Pseudomonas corrugata DSM 7228
[11] = test system: Xanthomonas vesicatoria DSM 50861
[12] = test system: Clavibacter michiganensis subsp. michiganensis DSM 46294
Botrytis cinerea = test system: Botrytis cinerea
[13] = test system: Pectobacterium carotovorum subsp. carotovorum DSM 30168
Alternaria alternata = test system: Alternaria alternata
[14] = test system: Pseudomonas syringae pv. syringae DSM 10604
Cladosporium herbarum = test system: Cladosporium herbarum
[15] = test system: Pseudomonas syringae pv. tomato DC3000
[16] = test system: Escherichia coli IFO 3972
[17] = test system: Staphylococcus aureus FDA 209P
[18] = test system: Xanthomonas campestris pv. Vesicatoria 2133-2
[19] = test system: Pseudomonas syringae pv. syringae EPS 94
[20] = test system: Pseudomonas syringae pv. actinidiae Psa3700.1.1
[21] = test system: Xanthomonas fragariae Xf349-9A
[22] = test system: Xanthomonas arboricola pv. pruni CFBP 5563
[23] = test system: Erwinia amylovora PMV 6076
[24] = test system: Bacillus subtilis var. niger ATCC 9372
Escherichia coli K91BK = test system: Escherichia coli K91BK
[25] = test system: Bacillus anthracis Sterne 34F2
[26] = test system: Candida parapsilosis ATCC 22019
[27] = test system: Candida albicans ATCC 90028
[28] = test system: Malassezia furfur KCTC 7744
[29] = test system: Trichosporon beigelii KCTC 7707
[30] = test system: Escherichia coli ATCC 27325
[31] = test system: Candida albicans ATCC 10231
[32] = test system: Pseudomonas aeruginosa ATCC 27853
[33] = test system: Enterococcus faecalis ATCC 29212
[34] = test system: Saccharomyces cerevisiae ATCC 44774
[35] = test system: Salmonella typhimurium KCTC 2370
[36] = test system: Micrococcus luteus ATCC 10240
[37] = test system: Staphylococcus aureus ATCC 15752
[38] = test system: Bacillus subtilis KCTC 3038
[39] = test system: Cryptococcus neoformans ATCC 34881

MIC [16]: ≥ 500 µM
MIC [17]: ≥ 500 µM
Structure (SMILES): NCCCC[C@H](NC(=O)[C@H](CCCN=C(N)N)NC(=O)[C@H](CCCN=C(N)N)NC(=O)[C@H](CCCN=C(N)N)NC(=O)[C@@H]1CCCN1)C(=O)O [PRRRK]

MIC [18]: ≥ 50 µM
MIC [19]: ≥ 50 µM
MIC [20]: ≥ 50 µM
MIC [21]: ≥ 50 µM
MIC [22]: ≥ 50 µM
MIC [23]: ≥ 50 µM
Structure (SMILES): CC[C@H](C)[C@H](NC(=O)[C@H](CCC(=O)O)NC(=O)[C@H](CC(N)=O)NC(=O)[C@H](CC(C)C)NC(=O)[C@H](C)NC(=O)[C@H](CCCCN)NC(=O)[C@@H](N)CCC(N)=O)C(=O)N[C@@H](CC(N)=O)C(=O)N[C@@H](CCC(N)=O)C(=O)N[C@@H](Cc1ccccc1)C(N)=O [QKALNEINQF]

MIC [26]: 10 µM (≈ 27.6 µg/mL)
MIC [27]: 10 µM (≈ 27.6 µg/mL)
MIC [28]: 14.1 µM (≈ 39 µg/mL)
MIC [29]: 20 µM (≈ 55.1 µg/mL)
Structure (SMILES): CC[C@H](C)[C@H](NC(=O)[C@H](C)NC(=O)[C@H](CCCCN)NC(=O)[C@H](CCCN=C(N)N)NC(=O)[C@H](CS)NC(=O)[C@H](CCCN=C(N)N)NC(=O)[C@H](CCCCN)NC(=O)[C@@H](NC(=O)[C@H](CC(N)=O)NC(=O)[C@H](CCCN=C(N)N)NC(=O)[C@H](CCC(=O)O)NC(=O)[C@H](CS)NC(=O)[C@H](CO)NC(=O)[C@@H](NC(=O)[C@H](CCCCN)NC(=O)[C@H](Cc1cnc[nH]1)NC(=O)[C@H](CC(N)=O)NC(=O)CNC(=O)[C@H](CC(C)C)NC(=O)[C@H](CCCCN)NC(=O)[C@H](CCCCN)NC(=O)[C@H](CCSC)NC(=O)[C@@H](N)CCCN=C(N)N)C(C)C)[C@@H](C)O)C(=O)O [RMKKLGNHKVSCERNTKRCRKAI]

MIC [30]: ≥ 36.6 µM
MIC [31]: > 36.6 µM
MIC [32]: > 36.6 µM
MIC [33]: > 36.6 µM
MIC [34]: ≥ 36.6 µM
MIC [35]: ≥ 36.6 µM
MIC [36]: ≥ 36.6 µM
MIC [37]: ≥ 36.6 µM
MIC [38]: ≥ 36.6 µM
MIC [39]: ≥ 36.6 µM
Structure (SMILES): CC(C)[C@H](NC(=O)CNC(=O)[C@H](CCC(N)=O)NC(=O)[C@@H](NC(=O)[C@@H](NC(=O)[C@@H]1CCCN1C(=O)[C@H](CCCN=C(N)N)NC(=O)[C@@H](NC(=O)[C@@H](NC(=O)[C@@H](N)CCCN=C(N)N)C(C)C)C(C)C)C(C)C)C(C)C)C(=O)N[C@@H](CCCCN)C(=O)N[C@@H](CCC(=O)O)C(=O)N[C@@H](CCCCN)C(=O)N[C@H](C(=O)N[C@@H](CCCN=C(N)N)C(=O)O)C(C)C [RVVRPVVQGVKEKVR]

More lines, now with the values behind:

Structure (SMILES): CC[C@H](C)[C@H](NC(=O)[C@H](CCC(N)=O)NC(=O)[C@H](CCC(=O)O)NC(=O)[C@H](CCC(=O)O)NC(=O)[C@H](CCCCN)NC(=O)[C@@H]1CCCN1C(=O)[C@H](CC(C)C)NC(=O)[C@H](C)NC(=O)[C@H](CO)NC(=O)[C@H](CC(C)C)NC(=O)[C@@H](NC(=O)[C@H](C)N)C(C)C)C(=O)NCC(=O)N[C@@H](CCCCN)C(=O)N[C@@H](C)C(=O)N[C@@H](CO)C(=O)N[C@H](C(=O)N[C@@H](CCCN=C(N)N)C(=O)NCC(=O)N[C@@H](CCCN=C(N)N)C(=O)N[C@@H](CCCCN)C(=O)N[C@@H](C)C(=O)N[C@@H](C)C(=O)N[C@@H](CCCN=C(N)N)C(=O)N[C@@H](CCCN=C(N)N)C(=O)N[C@@H](CCCCN)C(=O)N[C@@H](CCCCN)C(=O)O)[C@@H](C)O [AVLSALPKEEQIGKASTRGRKAARRKK]
MIC [1]: ≥ 102 µM
MIC [2]: ≥ 102 µM
MIC [3]: > 102 µM
MIC [4]: ≥ 102 µM
MIC [5]: ≥ 102 µM

Structure (SMILES): CC[C@H](C)[C@H](NC(=O)[C@H](CCCN=C(N)N)NC(=O)[C@@H](NC(=O)[C@@H](NC(=O)[C@@H]1CCCN1C(=O)[C@@H](NC(=O)[C@@H](NC(=O)[C@H](C)NC(=O)[C@@H]1CCCN1C(=O)CNC(=O)[C@H](Cc1ccc(O)cc1)NC(=O)[C@H](CCCCN)NC(=O)[C@H](CCCCN)NC(=O)[C@H](Cc1c[nH]c2ccccc12)NC(=O)[C@H](C)NC(=O)[C@H](CCCN=C(N)N)NC(=O)[C@H](CC(C)C)NC(=O)[C@@H](NC(=O)[C@H](CCCCN)NC(=O)[C@H](CCCN=C(N)N)NC(=O)CNC(=O)[C@H](CC(C)C)NC(=O)[C@H](CO)NC(=O)[C@H](CCCN=C(N)N)NC(=O)[C@H](CC(C)C)NC(=O)CNC(=O)CN)[C@@H](C)CC)[C@@H](C)CC)C(C)C)[C@@H](C)CC)[C@@H](C)CC)C(N)=O [GGLRSLGRKILRAWKKYGPAIVPIIRI]
MIC [6]: 3.8 µM (≈ 11.5 µg/mL)
MIC [7]: 2.5 µM (≈ 7.58 µg/mL)
MIC [8]: 1.7 µM (≈ 5.15 µg/mL)
MIC [9]: 2.7 µM (≈ 8.19 µg/mL)

Structure (SMILES): CC(C)C[C@H](NC(=O)[C@H](C)NC(=O)[C@H](CCCCN)NC(=O)[C@@H](N)CC(C)C)C(=O)N[C@@H](CCCN=C(N)N)C(=O)N[C@@H](CCCCN)C(=O)N[C@@H](C)C(=O)N[C@@H](CC(C)C)C(=O)N[C@@H](CCCCN)C(=O)N[C@@H](Cc1cnc[nH]1)C(=O)N[C@@H](CC(C)C)C(=O)N[C@@H](C)C(N)=O [LKALRKALKHLA]
MIC [10]: 29.4 µM (≈ 40 µg/mL)
MIC [11]: 14.7 µM (≈ 20 µg/mL)
MIC [12]: 29.4 µM (≈ 40 µg/mL)
MIC (Botrytis cinerea): ≥ 73.4 µM
MIC [13]: 29.4 µM (≈ 40 µg/mL)
MIC (Alternaria alternata): ≥ 73.4 µM
MIC [14]: 7.34 µM (≈ 9.99 µg/mL)
MIC (Cladosporium herbarum): 14.7 µM (≈ 20 µg/mL)
MIC [15]: 1.84 µM (≈ 2.5 µg/mL)

Structure (SMILES): CC(=O)N[C@@H](CCCN=C(N)N)C(=O)NCC(=O)N[C@@H](CCCN=C(N)N)C(=O)NCC(=O)N[C@@H](CCCCN)C(=O)N[C@@H](CCC(N)=O)C(=O)NCC(=O)NCC(=O)N[C@@H](CCCCN)C(=O)N[C@H](C(=O)N[C@@H](CCCN=C(N)N)C(=O)N[C@@H](C)C(=O)N[C@@H](CCCCN)C(=O)N[C@@H](C)C(=O)N[C@@H](CCCCN)C(=O)N[C@H](C(=O)N[C@@H](CCCN=C(N)N)C(=O)N[C@@H](CO)C(=O)N[C@@H](CO)C(N)=O)[C@@H](C)O)C(C)C [RGRGKQGGKVRAKAKTRSS]
MIC [24]: ≥ 100 µM
MIC (Escherichia coli K91BK): ≥ 100 µM
MIC [25]: ≥ 100 µM
